Experimental findings from ChEMBL document CHEMBL1146926, “Fluorescent non-imidazole histamine H3 receptor ligands with nanomolar affinities” (Bioorg Med Chem Lett, 2006) are described below.

This assay concerns the target Histamine H3 receptor (Homo sapiens, UniProt Q9Y5N1). Nature of the assay: Displacement of [125I]iodoproxyfan from human histamine H3 receptor expressed in CHOK1 cells. It counts as cell-based, CHO-K1. (Loss of bound radioactivity is the signal in a displacement assay; it reports binding, not function.)

SMILES strings stand for the structures.

Histamine H3 receptor, sequence (Q9Y5N1 whole entry): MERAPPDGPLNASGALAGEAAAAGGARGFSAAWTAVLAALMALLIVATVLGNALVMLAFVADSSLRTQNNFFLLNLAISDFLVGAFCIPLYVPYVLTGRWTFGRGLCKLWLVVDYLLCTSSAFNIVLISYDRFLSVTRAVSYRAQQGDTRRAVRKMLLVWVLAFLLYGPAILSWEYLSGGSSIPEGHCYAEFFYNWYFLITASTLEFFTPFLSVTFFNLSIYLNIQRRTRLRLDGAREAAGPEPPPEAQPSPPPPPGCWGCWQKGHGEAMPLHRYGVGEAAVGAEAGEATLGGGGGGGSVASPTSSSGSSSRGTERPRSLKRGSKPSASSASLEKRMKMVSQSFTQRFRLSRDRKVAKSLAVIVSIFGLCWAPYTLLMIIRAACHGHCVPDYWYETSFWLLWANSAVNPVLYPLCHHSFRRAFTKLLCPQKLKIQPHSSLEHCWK

The term Ki denotes the equilibrium dissociation constant of an inhibitor or competing ligand from its target. Read a low Ki as higher affinity. On to `N#Cc1c2ccccc2cn1CCCCCN1CCCCC1`, for which the Ki is 0.031 µM. The result for `N#Cc1c2ccccc2cn1CCCCN1CCCCC1` reads 0.178 µM.

Compound `N#Cc1c2ccccc2cn1CCCCCCN1CCCCC1` registered a Ki of 0.031 µM. Turning to `O=[N+]([O-])c1ccc(NCCCCN2CCCCC2)c2nonc12`, affinity was put at a Ki of 0.17 µM. The value for `O=[N+]([O-])c1ccc(NCCCCCN2CCCCC2)c2nonc12` was 0.011 µM; that for `N#Cc1c2ccccc2cn1CCCN1CCCCC1` was 0.351 µM.
